Measurements published in patent US20240408170A1, “COMPOSITION FOR DECOMPOSITION OF TRYPSIN OR TMPRSS2” (Riken, priority 2021, published 2024).

How the values were obtained:
recombinant mouse PRSS2 [1] = target: T1, recombinant mouse PRSS2 (Mus musculus, UniProt P07146); assay: Trypsin decomposition in vitro by bacteria (western blot); type: biochemical; details: for trypsin-decomposing ability of P. clara (1C4) after pretreating rmPRSS2 with protease inhibitor: rmPRSS2 pretreated 30 minutes with inhibitor; for decomposition of rmPRSS2 (western blot): bacteria or culture supernatant incubated with recombinant mouse trypsin
T1 construct: purchased Sino Biological, Inc. 50383-M08H
T1 sequence (P07146 24-246): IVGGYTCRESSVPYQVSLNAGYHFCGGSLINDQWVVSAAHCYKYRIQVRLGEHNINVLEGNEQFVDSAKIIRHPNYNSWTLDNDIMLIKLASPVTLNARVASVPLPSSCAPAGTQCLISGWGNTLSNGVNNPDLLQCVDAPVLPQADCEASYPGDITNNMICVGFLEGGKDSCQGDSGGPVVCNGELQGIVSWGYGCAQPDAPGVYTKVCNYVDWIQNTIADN
Description: Mouse faecal samples were suspended and diluted 50-fold with phosphate buffered saline (PBS) to which a protease inhibitor cocktail (Roche) was added. Subsequently, the suspended sample was centrifuged at 15,000×g for 10 minutes at 4° C., and the supernatant was subjected to western blot. Mouse pancreatic tissue was rapidly frozen in liquid nitrogen. Proteins were extracted by TRIzol Reagent (Thermo Fisher Scientific K.K.), and the final protein concentration was adjusted to 4 μg/μL. For SDS-PAGE and blotting, Novex (registered trademark) NuPAGE (registered trademark) SDS-PAGE Gel system (Thermo Fisher Scientific K.K.) and iBlot™ 2 Dry Blotting System (Thermo Fisher Scientific K.K.) were used according to the manufacturer's instructions.
The bacteria cultured overnight were incubated with recombinant mouse trypsin (final concentration: 1 μg/mL) for 1 hour or with human trypsin (final concentration: 20 μg/mL) for 4 hours. Recombinant trypsin isoforms used were as follows: recombinant mouse PRSS2 (50383-M08H, Sino Biological, Inc.), recombinant human PRSS1 (LS-G135640), recombinant human PRSS2 (LS-G20167), and recombinant human PRSS3 (His-tag) (NBP2-52220).
In some experiments, recombinant mouse PRSS2 was first treated with one of the following trypsin inhibitors for 30 minutes before incubation with a P. clara culture solution. AEBSF (Sigma-Aldrich, final concentration: 2 mM), Leupeptin (Sigma-Aldrich, final concentration: 100 μM), and TLCK (Abcam plc., final concentration: 100 μM).
In some experiments, P. clara was cultured overnight in the presence of Tunicamycin (Sigma-Aldrich, final concentration: 10 μg/mL), 2-Fluoro-L-fucose (Cayman Chemical Company, final concentration: 250 μM), or the corresponding DMSO control, before incubation with recombinant mouse PRSS2.
In the experiment of evaluating the effect of Ca^2+, P. clara was cultured in a low Ca^2+ mGAM medium supplemented with or without 1 mM of Ca^2+, before incubation with recombinant mouse PRSS2. In the experiment in which the supernatant of P. clara was used, P. clara cultured overnight was filtered through a sterilization filter unit formed using a PVDF film having a pore size of 0.22 μm.

trypsin = assay: Faecal trypsin activity of GF mice colonized by human microbiota, isolated strain mixtures or P. clara strains; type: in vivo, mouse; details: GF+C#5 mice, antibiotic via drinking
Description: Mouse intestinal contents or a mice faecal sample was diluted 500-fold (w/v) with a 0.9% NaCl solution. Human faeces were diluted 200-fold (w/v) with a 0.9% NaCl solution. The diluted solution was vortexed in a mini shaker for 20 minutes at 2,000 rpm, homogenized by pipetting, and then centrifuged at 10,000×g for 15 minutes at 4° C. Subsequently, the supernatant was recovered to measure the trypsin activity by a Trypsin Activity Assay Kit (Colorimetric) for 100 tests (ab102531) according to the manufacturer's protocol. The absorbance at 405 nm was measured in a kinetic mode by using a PerkinElmer 2030 Multilabel Reader.
Human faecal samples were collected at RIKEN and Keio University according to a research protocol approved by the Research Ethics Review Committee. Informed consent was obtained from each subject. A human faecal sample (preserved in 20% (v/v) glycerol) was transferred to an anaerobic chamber, thawed, and then sieved with a 100 μm mesh, transferred to a GF isolator, and orally administered to GF mice by 200 μL/mouse.
For an antibiotic treatment, each solution of 0.5 g/L ampicillin (Nacalai Tesque, Inc.), 0.5 g/L metronidazole (Nacalai Tesque, Inc.), and 1.0 g/L tylosin (Sigma-Aldrich) was produced with autoclaved tap water. The antibiotic solution was given, for 12 days, to mice to which the faecal contents derived from a donor C were orally administered. The antibiotic solution was changed once a week.
The isolated strains except for Phasolactobacterium faecium (3G4) were cultured in an anaerobic chamber at a temperature of 37° C. for 1 to 2 days. Phasolactobacterium faecium was cultured for 2 to 3 days in an Oxoid CM0619 agar plate to which 80 mM sodium succinate was added. The colonies were recovered and resuspended in EGEF. The bacterial density was adjusted based on an OD600 value, and the mixture of the cultured strains was orally administered to GF mice (150 μL/mouse, total bacterial count: about 1 to 2×10^8 CFU).

IgA heavy chain = assay: Ex vivo incubation of mouse faeces at 37° C. for 48 hours, western blot; details: GF faeces mixed with 2-mix+WT faeces, trypsin inhibitor added
Description: Mouse faecal samples were suspended and diluted 50-fold with phosphate buffered saline (PBS) to which a protease inhibitor cocktail (Roche) was added. Subsequently, the suspended sample was centrifuged at 15,000×g for 10 minutes at 4° C., and the supernatant was subjected to western blot. Mouse pancreatic tissue was rapidly frozen in liquid nitrogen. Proteins were extracted by TRIzol Reagent (Thermo Fisher Scientific K.K.), and the final protein concentration was adjusted to 4 μg/μL. For SDS-PAGE and blotting, Novex (registered trademark) NuPAGE (registered trademark) SDS-PAGE Gel system (Thermo Fisher Scientific K.K.) and iBlotTM 2 Dry Blotting System (Thermo Fisher Scientific K.K.) were used according to the manufacturer's instructions. The antibodies used are as follows. A rabbit anti-mouse PRSS2 antibody (Cosmo Bio Co., Ltd.), a rabbit anti-mouse HSP90 antibody (#4877, Cell Signaling Technology, Inc.), a rabbit anti-human PRSS2 antibody (LS-B15726, LSBio), a rabbit anti-human PRSS1 antibody (LS-331381, LSBio), a rabbit anti-mouse TMPRSS2 antibody (LS-C373022, LSBio, against the sequence of the protease domain), a rabbit anti-6-His antibody ([…]-[…], Bethyl Laboratories, Inc.), a goat anti-mouse IgA a chain antibody (HRP) (ab97235, Abcam plc.), a rat anti-mouse κ chain antibody (HRP) (ab99632, Abcam plc.), a rabbit anti-mouse CELA3b antibody (OACD03205, Aviva Systems Biology Corporation), an anti-rabbit IgG antibody (HRP) (#7074, Cell Signaling Technology, Inc.), and a rabbit anti-mouse Reg3 antibody (51153-[…], Sino Biological, Inc.).

recombinant mouse PRSS2 [2] = target: T1, recombinant mouse PRSS2; assay: Binding of Alexa Fluor 488-labeled rmPRSS2 to the surface of bacteria (confocal microscope)
Description: Recombinant mouse PRSS2 was labeled with Alexa Fluor™ 488 using an Alexa Fluor™ 488 Antibody Labeling Kit (Δ20181, Thermo Fisher Scientific K.K.), and was pretreated with an AEBSF inhibitor (150 μg/mL rmPRSS2 with 20 mM AEBSF).
Mouse PRSS2 labeled with Alexa Fluor™ 488 was incubated in an anaerobic chamber for 20 minutes with bacteria cultured at a final concentration of 5 μg/mL. The mixture was centrifuged, washed once with PBS, and then resuspended in PBS. A Leica TCS SP8 confocal microscope was used for capturing a confocal image.

NCCc1ccc(S(=O)(=O)F)cc1 [AEBSF, reference compound]
trypsin-decomposing ability of P. clara (1C4) after pretreating rmPRSS2 with protease inhibitor (recombinant mouse PRSS2 [1]): lost

CC1(C)S[C@@H]2[C@H](NC(=O)[C@H](N)c3ccccc3)C(=O)N2[C@H]1C(=O)O [Amp, Ampicillin]
faecal trypsin activity (trypsin): more decreased

Cc1ncc([N+](=O)[O-])n1CCO [MNZ, metronidazole]
faecal trypsin activity (trypsin): no decrease

Cc1ccc(S(=O)(=O)N[C@@H](CCCCN)C(=O)CCl)cc1 [TLCK, reference compound]
decomposition of IgA heavy chain in mixed faeces (IgA heavy chain): inhibited the decomposition of the IgA heavy chain
trypsin-decomposing ability of P. clara (1C4) after pretreating rmPRSS2 with protease inhibitor (recombinant mouse PRSS2 [1]): lost

CC[C@H]1OC(=O)C[C@@H](O)[C@H](C)[C@@H](O[C@@H]2O[C@H](C)[C@@H](O[C@H]3C[C@@](C)(O)[C@@H](O)[C@H](C)O3)[C@H](N(C)C)[C@H]2O)[C@@H](CC=O)C[C@@H](C)C(=O)/C=C/C(C)=C/[C@@H]1CO[C@@H]1O[C@H](C)[C@@H](O)[C@@H](OC)[C@H]1OC [Tyl, tylosin]
faecal trypsin activity (trypsin): no decrease

CC(=O)N[C@@H](CC(C)C)C(=O)N[C@@H](CC(C)C)C(=O)N[C@H](C=O)CCCNC(=N)N [leupeptin, reference compound]
trypsin-decomposing ability of P. clara (1C4) after pretreating rmPRSS2 with protease inhibitor (recombinant mouse PRSS2 [1]): lost

Paraprevotella clara [P237E3b]
decomposition of rmPRSS2 (western blot) (recombinant mouse PRSS2 [1]): effect of reducing trypsin

Paraprevotella clara [P322B5]
decomposition of rmPRSS2 (western blot) (recombinant mouse PRSS2 [1]): effect of reducing trypsin

Paraprevotella xylaniphila [P. xylaniphila (JCM 14860) strain]
decomposition of rmPRSS2 (western blot) (recombinant mouse PRSS2 [1]): potent trypsin-reducing ability

Prevotella copri [reference compound]
decomposition of rmPRSS2 (western blot) (recombinant mouse PRSS2 [1]): did not decrease the trypsin activity

Prevotella denticola [reference compound]
decomposition of rmPRSS2 (western blot) (recombinant mouse PRSS2 [1]): did not decrease the trypsin activity
binding of rmPRSS2 to the surface of bacteria (recombinant mouse PRSS2 [2]): no accumulation of trypsin was observed

Prevotella muris [Prevotella muris strain]
decomposition of rmPRSS2 (western blot) (recombinant mouse PRSS2 [1]): had a trypsin-decomposing activity

Prevotella oulorum [reference compound]
decomposition of rmPRSS2 (western blot) (recombinant mouse PRSS2 [1]): did not decrease the trypsin activity
binding of rmPRSS2 to the surface of bacteria (recombinant mouse PRSS2 [2]): no accumulation of trypsin was observed

Prevotella rara [Prevotella rara (MSP 0081) strain]
decomposition of rmPRSS2 (western blot) (recombinant mouse PRSS2 [1]): had a trypsin-decomposing activity

Prevotella rodentium [Prevotella rodentium strain]
decomposition of rmPRSS2 (western blot) (recombinant mouse PRSS2 [1]): had a trypsin-decomposing activity

Prevotella stercorea [reference compound]
decomposition of rmPRSS2 (western blot) (recombinant mouse PRSS2 [1]): did not decrease the trypsin activity

tunicamycin [reference compound]
decomposition of rmPRSS2 by P. clara pretreated with sugar chain synthesis inhibitor (recombinant mouse PRSS2 [1]; P. clara cultured overnight with inhibitor): no decomposition of trypsin was observed
binding of rmPRSS2 to the surface of P. clara treated with sugar chain synthesis inhibitor (recombinant mouse PRSS2 [2]): no accumulation of trypsin on the surface
